Experimental data published in publication PMC7168327, “Designed Antimicrobial Peptides for Topical Treatment of Antibiotic Resistant Acne Vulgaris” (Antibiotics, 2020).
Values after ≈ are worked out from the molar mass of the structure shown. “Also recorded” adds a separate entry of the source. Bridge positions count the residues as written; N and C are the ends. Peptide text beside a SMILES is read from it.

Tests used:
C. acnes ATCC11827 = type: cell-based, Cutibacterium acnes; details: C. acnes ATCC11827; RCM broth, anaerobic, 1 × 10^6 CFU per mL, two-fold dilutions 0.5–32 μg/mL, 48 h, OD 600 nm; mean of three replicates
Description: (§1) The ten antibiotic resistant C. acnes clinical isolates were acquired from BEI resources with the two reference strains obtained from American Type Culture Collection (ATCC, Manassas, VA, USA). C. acnes is a relatively slow-growing, typically aerotolerant anaerobic so all in vitro C. acnes experiments were performed under anaerobic conditions.
(§2) Single colonies were inoculated in Reinforced Clostridium Medium (RCM) broth supplemented with sodium thioglycolate and incubated at 37 °C, with shaking at 200 rpm, for 2 or 3 days to reach logarithmic growth (OD600nm = 1.0). Each C. acnes (1 × 10^6 CFU per mL) was incubated with dAMP or clindamycin at two-fold serial dilutions (0.5–32 μg per mL) in RCM on a 96-well microplate for 48 h. Three replicas were included for each test article concentration. Bacterial growth was measured by optical density at 600 nm to determine the MIC for each dAMP applied.

C. acnes ATCC6919 = type: cell-based, Cutibacterium acnes; details: C. acnes ATCC6919; RCM broth, anaerobic, 1 × 10^6 CFU per mL, two-fold dilutions 0.5–32 μg/mL, 48 h, OD 600 nm; mean of three replicates
Description: as §1, §2

C. acnes HL007PA1 = type: cell-based, Cutibacterium acnes; details: C. acnes HL007PA1; RCM broth, anaerobic, 1 × 10^6 CFU per mL, two-fold dilutions 0.5–32 μg/mL, 48 h, OD 600 nm; mean of three replicates
Description: as §1, §2

C. acnes HL053PA1 = type: cell-based, Cutibacterium acnes; details: C. acnes HL053PA1; RCM broth, anaerobic, 1 × 10^6 CFU per mL, two-fold dilutions 0.5–32 μg/mL, 48 h, OD 600 nm; mean of three replicates
Description: as §1, §2

C. acnes HL072PA1 = type: cell-based, Cutibacterium acnes; details: C. acnes HL072PA1; RCM broth, anaerobic, 1 × 10^6 CFU per mL, two-fold dilutions 0.5–32 μg/mL, 48 h, OD 600 nm; mean of three replicates
Description: as §1, §2

C. acnes HL082PA2 = type: cell-based, Cutibacterium acnes; details: C. acnes HL082PA2; RCM broth, anaerobic, 1 × 10^6 CFU per mL, two-fold dilutions 0.5–32 μg/mL, 48 h, OD 600 nm; mean of three replicates
Description: as §1, §2

[1] = system: bioluminescent human immortalized keratinocytes (HaCaT); assay: Mammalian cytotoxicity, bioluminescent human keratinocytes; type: cell-based; details: bioluminescent HaCaT
Description: (§3) Noninvasive and real-time monitoring of mammalian cytotoxicity to assess the potential skin toxicity of the dAMPs was evaluated using bioluminescent human immortalized keratinocytes (HaCaT, AddexBio, San Diego, CA, USA). The bioluminescent variant of HaCaT was constructed by transfection with a luciferase gene (RediFect Red-Fluc-Puromycin, Cat# CL596002). Keratinocytes (1 × 10^4 cells, 100 μL) were plated in 96-well black-walled plates. The candidate dAMPs were 2-fold serially diluted from 1024 µg/mL in growth medium supplemented with 150 µg/mL D-luciferin. Each concentration was performed in triplicate, with the final volume being 200 μL. Imaging was performed at select times (0, 15, and 30 min and 1, 3, 5, and 8 h) after the addition of the dAMP, and compared to concurrently run vehicle-control, using an IVIS Lumina imaging system (Caliper Life Sciences, Inc., Hopkinton, MA, USA). For imaging, the 96-well plate was positioned on the stage (12.5-cm field of view), with an open emission filter, binning of 4, and f-stop 1 and a 1-min exposure time. Data analysis was performed using the Living Image software program (version 4.3, Caliper Life Sciences, Inc.). The dAMP concentrations required to kill 10% and 50% of keratinocytes were determined using GraphPad Prism 7 (GraphPad Software, San Diego, CA, USA).

C. acnes HL043PA2 = assay: Multidrug-resistant C. acnes intradermal murine infection model; type: in vivo; details: topical 25 μL, BALB/c mice; for mean bacterial burden in skin (CFU/g): 7 applications 2–74 h post infection, skin harvested at 96 h, n = 6
Description: All animals received care in compliance with the Guide for the Care and Use of Laboratory Animals (8th Edition, National Institutes of Health Publication, 2011). All studies were approved by the Institutional Animal Care and Use Committee. Female BALB/c mice, 5 to 7 weeks, were obtained from Envigo Laboratories Inc (Indianapolis, IN, USA). General anesthesia consisted of an intraperitoneal injection of ketamine 100 mg/kg and xylazine 10 mg/kg (Vedco, Inc., St. Joseph, MO, USA).
Mice were inoculated via intradermal (ID) injection of the antibiotic-resistant C. acnes HL043PA2 (7.0 log10 CFU, 50 μL, BEI Resources, HM-514, [14]). The day prior to infection, each mouse was anesthetized using isoflurane, and an area of approximately 1″ × 1″ of skin on the dorsal area of each mouse was shaved and cleared of hair using the depilatory agent Nair®. Beginning 2 h after infection, mice were anesthetized and RP556, formulated in 2% hydroxypropyl methylcellulose in water, viscosity 3000–5600 cP, or 40 mg/mL clindamycin (4%) was administered topically, at 25 μL twice daily for a total of 7 applications (2, 14, 26, 38, 50, 62 and 74 h post infection). Abscesses were harvested at 96 h post-challenge (or Day 7 for untreated control) and assessed for bacterial CFU per gram of skin tissue.

[2] = system: C. acnes HL043PA2 compared to human keratinocytes; type: cell-based
Description: In evaluating the clinical utility of each of the candidate dAMPs for C. acnes treatment, the Therapeutic Index was determined. The Therapeutic Index is defined as the ratio of concentration at which the dAMP is active against the prokaryotic C. acnes pathogen without inducing cytotoxic damage to the surrounding mammalian cells. The EC10 and EC50 doses, defined as the concentrations required to kill 10% and 50% respectively of human keratinocytes following 8 h incubation with each of the Riptide dAMPs, are tabulated and graphed in Table 2 and Figure 3, respectively. The larger the Therapeutic Index, the greater the specificity of the dAMP for destroying C. acnes cells.
as §2, §3

Q: For `CC[C@H](C)[C@@H]1NC(=O)CNC(=O)[C@H](CCCCN)NC(=O)[C@H](Cc2ccc(O)cc2)NC(=O)[C@@H]2CSSC[C@H](NC1=O)C(=O)N[C@@H](Cc1ccc(O)cc1)C(=O)N[C@@H](CCCCN)C(=O)N[C@@H](CCCCN)C(=O)N[C@H](C(=O)N[C@@H](CCCCN)C(N)=O)CSSC[C@H](NC(=O)[C@H](Cc1c[nH]c3ccccc13)NC(=O)[C@@H](N)CCCNC(=N)N)C(=O)N[C@@H](Cc1ccccc1)C(=O)N[C@@H](CCCCN)C(=O)N[C@@H](C(C)C)C(=O)N2` [RP556] (H-RWCFKVCYKGICYKKCK-NH2; disulfide 3-16, 7-12), which MIC (C. acnes ATCC11827) is on record?
A: 8 µg/mL (≈ 3.72 µM)

Q: What about the MIC (C. acnes ATCC6919) of the same molecule?
A: 4 µg/mL (≈ 1.86 µM)

Q: And the MIC (C. acnes HL007PA1)?
A: 4 µg/mL (≈ 1.86 µM)

Q: What about the MIC (C. acnes HL053PA1) of the same molecule?
A: 4 µg/mL (≈ 1.86 µM)

Q: And the MIC (C. acnes HL072PA1)?
A: 8 µg/mL (≈ 3.72 µM)

Q: What about the MIC (C. acnes HL082PA2) of the same molecule?
A: 2 µg/mL (≈ 0.929 µM)

Q: And the “viability of human keratinocytes” value ([1]; 8 h incubation at 256 μg/mL)?
A: greater than 80%

Q: What about the “EC10, concentration required to kill 10% of human keratinocytes” value ([1]; 1 × 10^4 cells/well, 8 h incubation, 2-fold dilutions from 1024 µg/mL, triplicate, IVIS imaging, GraphPad Prism 7) of the same molecule?
A: 276 µg/mL

Q: What about the “mean bacterial burden in skin (CFU/g)” value (C. acnes HL043PA2; RP556 5 mg/mL (0.5%) in 2% hydroxypropyl methylcellulose) of the same molecule?
A: below the detectable limit; also recorded: completely eliminated C. acnes infection

Q: And the “mean bacterial burden in skin (CFU/g)” value (C. acnes HL043PA2; RP556 20 mg/mL in 2% hydroxypropyl methylcellulose)?
A: below the detectable limit

Q: And the “clinical observations and body weight following treatment” value (C. acnes HL043PA2; 5 and 20 mg/mL, 7 applications)?
A: no untoward clinical observations or changes in body weight

Q: What about the “Therapeutic Index (EC10 / MIC)” value ([2]; keratinocyte EC10 (8 h) versus MIC against HL043PA2 C. acnes) of the same molecule?
A: 70

Q: What about the “Therapeutic Index (EC50 / MIC)” value ([2]; keratinocyte EC50 (8 h) versus MIC against HL043PA2 C. acnes) of the same molecule?
A: 130
